“Also recorded” adds a separate entry of the source.
How the values were obtained:
LAN cells = assay: Measurement of acetylcholine release in differentiated LAN cells stimulated with 50 mM KCl; type: cell-based; conditions: 1 hour treatment, 0.001, 0.005 and 0.01 mg/mL (Ac-SEQ ID NO: 8-NH2: 0.005 and 0.05 mg/mL)
Method: Said peptides were tested for their ability to modulate acetylcholine release in vitro. To that end, LAN cells were seeded on 48-well culture plates and allowed to reach the appropriate confluence under controlled conditions (37° C., 5% CO2) before inducing differentiation by replacing the culture media with Neurobasal® A media, supplemented with N-2 Supplement, GlutaMAX™, choline chloride and Leukemia Inhibition factor (GIBCO, Life technologies, MA, USA). Once the cells acquired its differentiated morphology, they were treated with the peptides mentioned above at the following concentrations for 1 hour: all peptides, except Ac-SEQ ID NO: 8-NH2, at 0.001 mg/mL, 0.005 mg/mL and 0.01 mg/mL; and peptide Ac-SEQ ID NO: 8-NH2 at 0.005 mg/mL and 0.05 mg/mL. Cells were then washed with HEPES, before stimulation of acetylcholine release by depolarization with external 50 mM KCl solution. Non-stimulated cells were incubated with non-depolarizing 4 mM KCl solution. After 30 minutes of incubation with the corresponding depolarizing or non-depolarizing KCl solution, cell supernatants were collected and used to measure acetylcholine levels with Amplex Red Acetylcholine Assay Kit (ThermoFisher Scientific, MA, USA). Cell pellets were used to determine protein content by BCA Protein Test Assay (Pierce BCA Protein Assay kit, ThermoFisher Scientific, MA, USA) (for data normalization purposes).
Percentage of acetylcholine release inhibition was calculated considering 100% release for the positive control (non-treated stimulated with KCl cells).

[1] = tested on: human muscle cells and motor neurons derived from hiPSC co-cultures; assay: Contraction frequency in human muscle cell / hiPSC motor neuron co-cultures; type: cell-based; conditions: 0.5 mg/mL
Method: The potential of said peptide Ac-SEQ ID NO: 8-NH2 to modulate the contraction frequency was evaluated in vitro using human muscle cells and motor neurons derived from hiPSC co-cultures, by means of live-imaging video of localized contractile muscle fibers recorded with an InCell 2200 automated microscope during 60 seconds, before and after treatment (after treatment, at each of the established timepoints).
Human muscle cells were cultivated at a density of 1×10^6 cells in T75 cm^2 flasks and then transferred to 96 well plates for differentiation. Motor neurons derived from hiPSC were transferred onto the 96 well plates containing the muscle cells in a differentiation medium. Co-cultures were maintained for 10 days in order to generate neurons junctions with muscle fibers. Spontaneous contractions were observed within 5 days.
Co-cultures were then treated with control medium (basal), 1 μM α-bungarotoxin, 0.5 mg/mL of acetyl hexapeptide-8 as a benchmark reference and 0.05 or 0.1 mg/mL of peptide Ac-SEQ ID NO: 8-NH2. Movies of co-cultures were recorded during 60 seconds before treatment and, after 30 minutes of incubation, movies were recorded again during 60 seconds. The culture plate was incubated again for 1 h 30 min with compounds (2 h of total incubation), and movies of co-cultures were recorded again during 60 seconds. The culture plate was incubated again for a total of 24 h with compounds and at the end of the incubation movies were recorded again during 60 seconds. Finally, compounds were washed out and a last recording after 24 h from said washed out of the compounds was done to assess an eventual recovery of muscle contractions (recovery).
Frequencies of contraction were calculated before and after each incubation. For each culture condition, 6 wells were analyzed.

SH-SY5Y cells = assay: Exocytosis levels and delay (fluorescent exocytosis reporter); type: cell-based, human; conditions: 1 mg/mL, 1 hour, PMA + ionomycin, vs non-treated cells
Method: The potential of said peptide Ac-SEQ ID NO: 8-NH2 to modulate the exocytosis of vesicles containing neurotransmitters from a neuroblastoma cell line was evaluated in vitro using SH-SY5Y cells, by fluorescence imaging using a Zeiss axiovert 200 inverted epifluorescence microscope with a 20× objective and a Xenon lamp.
SH-SY5Y cells (Sigma, USA) were cultured in T25 flasks in supplemented medium (DMEM/F12, Gibco, USA). Above 90% confluence, cells were trypsinized with 1 ml of 0.5% (v/v) Trypsin-EDTA. Next, 5 mL of said supplemented medium was added and cell concentration determined. Cells were seeded onto polyLysine-coated 12 mm-treated coverslips in 24 well-plates at 15×10^4 cells/well in supplemented medium (Gibco, USA) and incubated at regular conditions (37° C., 5% CO2). After 24 h cell seeding, cells were transfected with exocytosis reporter using Lipofectamine™ 3000 (Invitrogen, USA) following manufacturer's instructions. Reporter construct contained fusion protein made up of intraluminal-specific proteins and a pH-sensitive fluorescent protein.
For exocytosis monitorization, after 48 h of protein expression, cells were incubated with 0.01 mg/mL of Ac-SEQ ID NO: 8-NH2 peptide or 1 mg/mL of the benchmark acetyl hexapeptide-8 for 1 h at 37° C. and 5% CO2. Non-treated cells were used as basal control. […] Fluorescence imaging was done for the last 10 min of the stimulation protocol. Fluorescence signal of exocytosis reporter was monitored employing 483-512 nm excitation-filter and 525-530 nm emission-filter. […]
Non-treated cells were assayed in N=4 independent experiments with n=16 coverslips (483 cells measured), acetyl hexapeptide-8-treated cells in N=3 independent experiments with n=10 coverslips (328 cells measured) and Ac-SEQ ID NO: 8-NH2-treated cells in N=3 independent experiments with n=8 coverslips (240 cells measured). Cells were selected to individually monitor fluorescence intensity and time-course. Fluorescence peak evoked by ionomycin addition was used to quantify exocytosis by calculating the Area under the curve (AUC) using GraphPad software. Two parameters were defined and analyzed: • Exocytosis levels: For individual cells, total peak area was obtained from AUC analysis and was normalized by the baseline that was defined as fluorescence intensity 3-cycles before lonomycin injection. • Exocytosis delay: For individual cells, response time (min) was obtained from AUC analysis as time frame between lonomycin injection (Y) and initiation of peak (firstX).
Fluorescence values were further normalized as percentage change to non-treated cells on each experiment as: (exocytosis level of treated cells/exocytosis levels non-treated cells)×100 and (response time of treated cells/response time of non-treated cells)×100. […]

[2] = tested on: permeabilized chromaffin cells; conditions: Blanes-Mira et al. 2002; cited from earlier work
[3] = tested on: human skeletal muscle myocytes; assay: Gene expression modulation in skeletal muscle human myocytes (RTqPCR contractility gene panel); type: cell-based; conditions: 24 hours, vs basal control
Method: Said peptides were tested to evaluate their capacity to modulate the expression of several genes related with muscle contraction and relaxation in human skeletal muscle myocytes (Lodish H, Berk A, Zipursky S L, et al. (2000), Molecular Cell Biology, 4th edition; Section 18.3 Myosin: The Actin Motor Protein, Nueva York, W. H. Freeman; Kuo, I Y, & Ehrlich, B E (2015), Signaling in Muscle Contraction, Cold Spring Harbor Perspectives in Biology, 7(2); RAPSN receptor associated protein of the synapse [Homo sapiens (human)], Gene ID in NCBI 5913; Blake D J, Tinsley J M, Davies K E (1996), Utrophin: a structural and functional comparison to dystrophin, Brain Pathol., 6(1):37-47; Barik A, Lu Y, Sathyamurthy A, et.al. (2014), LRP4Is Critical for Neuromuscular Junction Maintenance, The Journal of Neuroscience, 34(42), 13892-13905; Kim N, Stiegler A L, Cameron T O, Hallock P T, et.al. (2008), Lrp4 is a Receptor for Agrin and Forms a Complex with MuSK, Cell, 135(2), 334-342; Mahavadi S, Nalli A, Kumar D, et.al. (2014), Increased expression of caveolin-1 is associated with upregulation of the RhoA/Rho kinase pathway and smooth muscle contraction in diabetes (1110.11), The FASEB Journal, 28:1_supplement)). To that end, a contractility smart data gene panel was designed. Said contractility smart data gene panel analyses the expression of the genes related with muscular contraction and relaxation included in table 5.
Briefly, human skeletal muscle myoblasts were seeded in duplicate in 12-well culture plates at a density of 1×10^5 cells/well and maintained at standard culture conditions (37° C., 95% humidity, 5% CO2) for 48-72h. Myoblast differentiation to myocyte was then induced with specific differentiation media (SKM-D medium+1% Antibiotic-Antimycotic) and monitored for 7 more days. Differentiated cells were treated with 0.05 mg/mL of peptide Ac-SEQ ID NO: 5-NH2; or with 0.1 mg/mL of peptide Ac-SEQ ID NO: 10-NH2 for 24 hours; or with 0.05 and 0.5 mg/mL of peptide Ac-SEQ ID NO: 8-NH2 for 6h; or with 0.5 mg/mL of peptide Ac-SEQ ID NO: 8-NH2 for 24 h. Untreated cells were used as basal control. Cells were then lysed for RNA extraction with a RNA purification commercial kit following manufacturer instructions (RNeasy mini kit, Qiagen, Netherlands). RNA was then quantified by nanodrop, adjusted in concentration and processed for retrotranscription to cDNA using a commercially available kit (High-Capacity cDNA Reverse Transcription kit, Thermofisher Scientific, USA). Resulting cDNA was used to perform a RTqPCR (Real Time Quantitative Polymerase Chain Reaction) using taqman technology and a panel of probes designed to target the specific genes related to muscle contractility mentioned in table 4.

Munc18/Syntaxin-1 = Munc18/Syntaxin-1 (Homo sapiens, UniProt Q16623); assay: ELISA-based in vitro Munc18/Syntaxin-1 binding assay; conditions: peptide 0.1, 0.5 and 1 mM; Munc18 100 nM, Syntaxin-1 10 and 5 nM; control = 100% binding
Method: The capacity of the peptides to inhibit Munc18 protein-protein interaction with Syntaxin-1, a SNARE complex protein, was functionally evaluated by means of an ELISA-based in vitro Munc18/Syntaxin-1 binding assay. Briefly, the above-mentioned peptides at 0.1, 0.5 and 1 mM were preincubated with their target protein Syntaxin-1 (GST-tagged) at 10 and 5 nM in buffer (20 mM Hepes, 150 mM NaCl, 2 mM MgC2, 2 mM DTT, 0.5% Triton-X100 and 0.5% non-fat milk) for 3 hours at RT. Meanwhile, His-tagged Munc18 was bound to a Nickel-coated 96-well plate at 100 nM and incubated at RT for 1.5 hours. Non-bound protein was subsequently washed away before blocking wells with non-fat milk in wash buffer (PBS+0.02% Triton-X100) for additional 30 minutes. GST-tagged Syntaxin-1 preincubated with the peptides was then added at 10 and 5 nM to the plate and incubated for 2 h at RT. Wells were washed three times with wash buffer before incubation with the primary antibody (GST tag polyclonal antibody—Thermofisher Scientific, Massachusetts, USA) for 45 minutes. Finally, after washing again, HRP-conjugated secondary antibody (Anti-Rabbit-IgG-HRP—Sigma, Missouri, USA) was added and incubated at RT. TMB substrate (3,3′,5,5′-Tetramethylbenzidine) was used to develop signal. […] Amount of binding of Syntaxin-1 protein to Munc18 protein was analysed by measuring absorbance at 450 nm.

Sequence of Munc18/Syntaxin-1 (Q16623 whole entry): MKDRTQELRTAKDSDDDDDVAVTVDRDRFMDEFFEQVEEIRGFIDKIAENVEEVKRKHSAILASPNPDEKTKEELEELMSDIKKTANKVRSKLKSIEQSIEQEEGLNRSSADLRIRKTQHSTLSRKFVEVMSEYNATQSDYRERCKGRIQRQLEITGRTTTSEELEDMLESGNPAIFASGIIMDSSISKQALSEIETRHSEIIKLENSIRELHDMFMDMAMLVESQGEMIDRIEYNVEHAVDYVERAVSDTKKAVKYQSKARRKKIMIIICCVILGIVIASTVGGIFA

For “Ac-His-Ile-Leu-Asp-Trp-Trp-NH2 (Ac-HILDWW-NH2) [Ac-SEQ ID NO: 7-NH2]”, the “Result: modulation of acetylcholine release” value (shortened to “Result: modulation”) (LAN cells) was “Active in the modulation of”.
For “acetyl hexapeptide-8 [reference compound]”, the “muscle contraction frequency with regard to the basal non-treated cells” value ([1]; after 30 min) was 18%, the “muscle contraction frequency with regard to the basal non-treated cells” value ([1]; after 24 h) was 45% and the “muscle contraction frequency with regard to the basal non-treated cells” value ([1]; after washout) was 100%. For the same substance, the “change of exocytosis level” value (SH-SY5Y cells) was 7%, the “exocytosis response time delay” value (SH-SY5Y cells) was 67% and the “inhibition of exocytosis, maximum values” [2] was 40%.
In the case of “Ac-His-Ile-Met-Asp-Trp-Trp-NH2 (Ac-HIMDWW-NH2) [Ac-SEQ ID NO: 9-NH2]”, the “Result: modulation” value (LAN cells) is reported as “Active in the modulation of”.
For “Ac-Glu-Arg-Ile-Asn-Lys-Met-Arg-Tyr-NH2 (Ac-ERINKMRY-NH2) [Ac-SEQ ID NO: 14-NH2]”, the “Result: modulation” value (LAN cells) was “not able to inhibit the release of acetylcholine; also recorded: Non-active in the modulation”.
In the case of “Ac-Glu-Arg-Ile-Asn-Lys-Arg-Arg-Trp-NH2 (Ac-ERINKRRW-NH2) [Ac-SEQ ID NO: 13-NH2]”, the “Result: modulation” value (LAN cells) is reported as “not able to inhibit the release of acetylcholine; also recorded: Non-active in the modulation”.
With “Ac-Arg-Arg-Arg-Phe-NH2 (Ac-RRRF-NH2) [Ac-SEQ ID NO: 10-NH2]” the “Result: modulation” value (LAN cells) was “Active in the modulation of”, the CACNB1 gene expression ([3]; 0.1 mg/mL) was “downregulation” and the CHRNA1 gene expression ([3]; 0.1 mg/mL) was “downregulation”. The SCN3A gene expression ([3]; 0.1 mg/mL) was “downregulation”, the TNNC1 gene expression ([3]; 0.1 mg/mL) was “downregulation” and the UTRN gene expression ([3]; 0.1 mg/mL) was “downregulation”.
With “Ac-His-Ile-Met-Asp-Phe-Trp-NH2 (Ac-HIMDFW-NH2) [Ac-SEQ ID NO: 6-NH2]” the “Result: modulation” value (LAN cells) was “Active in the modulation of”.
With “Ac-Arg-Met-Arg-Phe-NH2 (Ac-RMRF-NH2) [Ac-SEQ ID NO: 11-NH2]” the “Result: modulation” value (LAN cells) was “Active in the modulation of”.
In the case of “Ac-His-Ile-Leu-Asp-Met-Trp-NH2 (Ac-HILDMW-NH2) [Ac-SEQ ID NO: 5-NH2]”, the “Result: modulation” value (LAN cells) is reported as “Active in the modulation of”, the “Maximum inhibition of Munc18-Syntaxin-1 binding” value (Munc18/Syntaxin-1) is reported as 67% and the ACTA1 gene expression ([3]; 0.05 mg/mL) is reported as “downregulation”. The MYH1 gene expression ([3]; 0.05 mg/mL) was “downregulation”, the RAPSN gene expression ([3]; 0.05 mg/mL) was “downregulation” and the SCN3A gene expression ([3]; 0.05 mg/mL) was “downregulation”. The TNNC1 gene expression ([3]; 0.05 mg/mL) was “downregulation” and the UTRN gene expression ([3]; 0.05 mg/mL) was “downregulation”.
